From patent publication US9963467B2, “Boronic acid derivatives and therapeutic uses thereof” (Rempex Pharmaceuticals, Inc., priority 2014, dated 2018)

Legend:
Assay type in all cases: in vitro ADME
[1] = Serum stability of prodrugs, rat serum; conditions: theoretical initial conc. 20 ug/mL; for Measured Initial Conc. in Serum: 37 degrees; for Conc. at t = 1 hr / Conc. at t = 3 hr: prodrug
Protocol: (§1) Prodrug strategy is one of the ways to achieve or increase oral bioavailability for therapeutic drugs. […] After a prodrug molecule is absorbed into systemic circulation, it should be hydrolyzed in the blood in order to release the active form. Hydrolysis of several prodrugs by rat and human serum were evaluated.
(§2) For all stability experiments the test compounds were treated with rat or human serum in Eppendorf tubes. Typically, 992 μl of serum was prewarmed at 37 degrees for 2 minutes and then 8 μl of a compound (at 5 mg/ml, 125×) was added to it to get a final concentration of […] and immediately mixed. Alternatively, serum stability might be tested at 1 mg/ml. […] After vortexing for 30 seconds, the tube was centrifuged in a microcentrifuge for 10 minutes at 15K rpm. Next, 100 μl of the supernatant was combined with 600 μl of water and injected on LC-MS using 0.1% formic acid in water for mobile phase A and 0.1% formic acid in methanol for mobile phase B on an ACE 5 C18 2.1×100 mm column with a 10 μL injection. The flow rate and gradient were adjusted as needed to give the desired resolution and run time. The pH of the mobile phase was adjusted if needed to improve the chromatography.
(§3) The time course of both the disappearance of a prodrug and the appearance of the active form of that prodrug is presented in Table 6 and Table 7. The active metabolites for all of the listed prodrugs are corresponding parent drugs

[2] = Serum stability of prodrugs, human serum; conditions: human serum; prodrug; theoretical initial conc. 20 ug/mL
Protocol: as §1, §2, §3

[3] = Serum stability of prodrugs, human serum; conditions: theoretical initial conc. 20 ug/mL; for Measured Initial Conc. in Serum: 37 degrees; for Conc. at t = 1 hr: prodrug

SMILES	Measured Initial Conc. in Serum [1]	Conc. at t = 1 hr [1]	Conc. at t = 3 hr [1]	Conc. at t = 3 hr [2]	Measured Initial Conc. in Serum [3]	Conc. at t = 1 hr [3]
CCC(=O)OCOC(=O)c1c(F)ccc2c1OB(O)[C@@H](NC(=O)CSC)C2 [Compound 16, (R)-propionyloxymethyl 7-fluoro-2-hydroxy-3-(2-(methylthio)acetamido)-3,4-dihydro-2H-benzo[e][1,2]oxaborinine-8-carboxylate]	20.2 µg/mL	400 ng/mL	0 ng/mL	270 ng/mL	20.7 µg/mL	2290 ng/mL
CCOC(=O)OCOC(=O)c1c(F)ccc2c1OB(O)[C@@H](NC(=O)CSC)C2 [Compound 19, (R)-(ethoxycarbonyloxy)methyl 7-fluoro-2-hydroxy-3-(2-(methylthio)acetamido)-3,4-dihydro-2H-benzo[e][1,2]oxaborinine-8-carboxylate]	17.4 µg/mL	0 ng/mL	0 ng/mL	1170 ng/mL	20.3 µg/mL	6110 ng/mL
CSCC(=O)N[C@H]1Cc2ccc(F)c(C(=O)OCOC(=O)C(C)(C)C)c2OB1O [Compound 18, (R)-pivaloyloxymethyl 7-fluoro-2-hydroxy-3-(2-(methylthio)acetamido)-3,4-dihydro-2H-benzo[e][1,2]oxaborinine-8-carboxylate]	14.6 µg/mL	9390 ng/mL	3290 ng/mL	6270 ng/mL	16.3 µg/mL	11600 ng/mL
CSCC(=O)N[C@H]1Cc2ccc(F)c(C(=O)OCOC(=O)C(C)C)c2OB1O [Compound 17, (R)-isobutyryloxymethyl 7-fluoro-2-hydroxy-3-(2-(methylthio)acetamido)-3,4-dihydro-2H-benzo[e][1,2]oxaborinine-8-carboxylate]	9.22 µg/mL	1350 ng/mL	–	160 ng/mL	9.74 µg/mL	1180 ng/mL

Continued, values first:

Measured Initial Conc. in Serum [1]	Conc. at t = 1 hr [1]	Conc. at t = 3 hr [1]	Conc. at t = 3 hr [2]	Measured Initial Conc. in Serum [3]	Conc. at t = 1 hr [3]	SMILES
18.6 µg/mL	8850 ng/mL	420 ng/mL	580 ng/mL	18.4 µg/mL	4830 ng/mL	CSCC(=O)N[C@H]1Cc2cc(F)c(F)c(C(=O)OCOC(=O)C(C)C)c2OB1O [Compound 45, 2-methylpropanoyloxymethyl(3R)-6,7-difluoro-2-hydroxy-3-[(2-methylsulfanylacetyl)amino]-3,4-dihydro-1,2-benzoxaborinine-8-carboxylate]
24.2 µg/mL	14100 ng/mL	5580 ng/mL	16500 ng/mL	23.4 µg/mL	19500 ng/mL	COc1ccc2c(c1C(=O)OCOC(=O)C(C)C)OB(O)[C@@H](NC(=O)CSC)C2 [Compound 42, 2-methylpropanoyloxymethyl(3R)-2-hydroxy-7-methoxy-3-[(2-methylsulfanylacetyl)amino]-3,4-dihydro-1,2-benzoxaborinine-8-carboxylate]
18.7 µg/mL	8290 ng/mL	410 ng/mL	1010 ng/mL	19.1 µg/mL	6220 ng/mL	CSCC(=O)N[C@H]1Cc2cc(Cl)c(F)c(C(=O)OCOC(=O)C(C)C)c2OB1O [Compound 46, 2-methylpropanoyloxymethyl(3R)-6-chloro-7-fluoro-2-hydroxy-3-[(2-methylsulfanylacetyl)amino]-3,4-dihydro-1,2-benzoxaborinine-8-carboxylate]
20.6 µg/mL	400 ng/mL	0 ng/mL	20900 ng/mL	24.4 µg/mL	20800 ng/mL	CCOC(=O)OCOC(=O)c1c(OC)ccc2c1OB(O)[C@@H](NC(=O)CSC)C2 [Compound 41, ethoxycarbonyloxymethyl(3R)-2-hydroxy-7-methoxy-3-[(2-methylsulfanylacetyl)amino]-3,4-dihydro-1,2-benzoxaborinine-8-carboxylate]
18.0 µg/mL	11700 ng/mL	4580 ng/mL	3160 ng/mL	18.9 µg/mL	8940 ng/mL	CSCC(=O)N[C@H]1Cc2ccc(F)c(C(=O)OCOC(=O)c3ccccc3)c2OB1O [Compound 43, benzoyloxymethyl(3R)-7-fluoro-2-hydroxy-3-[(2-methylsulfanylacetyl)amino]-3,4-dihydro-1,2-benzoxaborinine-8-carboxylate]
25.9 µg/mL	2710 ng/mL	740 ng/mL	19000 ng/mL	24.8 µg/mL	23600 ng/mL	COc1ccc2c(c1C(=O)OCOC(=O)OC(C)C)OB(O)[C@@H](NC(=O)CSC)C2 [Compound 40, isopropoxycarbonyloxymethyl(3R)-2-hydroxy-7-methoxy-3-[(2-methylsulfanylacetyl)amino]-3,4-dihydro-1,2-benzoxaborinine-8-carboxylate]
